Laboratory results: ChEMBL document CHEMBL1201862, “PubChem BioAssay data set” (2004)
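Results reflect a 48-hour exposure of cells in 96-well plates to compound at five concentrations. GI50 = concentration required for 50% inhibition of growth.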 Calls of active or inactive are those of the source. Cut-off read from the data, not from the text of the source: active = GI50 up to about 1.1 µM and inactive = higher.

Legend:
Experiment in all cases: growth of human tumour cells (NCI), 48 h
[1] = test system: A498
[2] = test system: A549
[3] = test system: BT-549
[4] = test system: CAKI-1
[5] = test system: CCRF-CEM
[6] = test system: COLO 205
[7] = test system: EKVX
[8] = test system: HOP-92
[9] = test system: HT-29
[10] = test system: LOX IMVI
[11] = test system: MCF7
[12] = test system: MDA-MB-231
[13] = test system: OVCAR-3
[14] = test system: SF-268
[15] = test system: SNB-19
[16] = test system: SR
[17] = test system: SW-620
[18] = test system: UACC-62
[19] = test system: MOLT-4
[20] = test system: SF-295

Row | Compound | GI50 [1] | GI50 [2] | GI50 [3] | GI50 [4] | GI50 [5] | GI50 [6] | GI50 [7] | GI50 [8] | GI50 [9] | GI50 [10] | GI50 [11] | GI50 [12] | GI50 [13] | GI50 [14] | GI50 [15] | GI50 [16] | GI50 [17] | GI50 [18] | GI50 [19] | GI50 [20]
1 | O=C1c2cc(Br)ccc2-c2ccc3c4ccc5c6c(ccc(c7ccc1c2c73)c64)C(=O)c1cc(Br)ccc1-5 | > 100 µM (inactive) | > 100 µM (inactive) | > 100 µM (inactive) | > 100 µM (inactive) | 0.787 µM (active) | > 100 µM (inactive) | > 100 µM (inactive) | > 100 µM (inactive) | > 100 µM (inactive) | > 100 µM (inactive) | > 100 µM (inactive) | > 100 µM (inactive) | > 100 µM (inactive) | > 100 µM (inactive) | > 100 µM (inactive) | 2.28 µM (inactive) | > 100 µM (inactive) | > 100 µM (inactive) |  | 
2 | COc1ccc2c(O)c(Oc3ccc(Cl)cc3)c(=O)oc2c1 | 38.5 µM (inactive) | > 100 µM (inactive) | 36.9 µM (inactive) | 54.3 µM (inactive) | > 100 µM (inactive) |  | > 100 µM (inactive) | 34.5 µM (inactive) | > 100 µM (inactive) | > 100 µM (inactive) | > 100 µM (inactive) | > 100 µM (inactive) | 83.9 µM (inactive) | > 100 µM (inactive) | 31.4 µM (inactive) | > 100 µM (inactive) | > 100 µM (inactive) |  | > 100 µM (inactive) | > 100 µM (inactive)
3 | COc1ccc(O[C@H](COCc2ccccc2)C[C@@H]2COC(C)(C)O2)cc1 | > 100 µM (inactive) | > 100 µM (inactive) | > 100 µM (inactive) | > 100 µM (inactive) | > 100 µM (inactive) | > 100 µM (inactive) | > 100 µM (inactive) |  | > 100 µM (inactive) | > 100 µM (inactive) | > 100 µM (inactive) | > 100 µM (inactive) | > 100 µM (inactive) | > 100 µM (inactive) | > 100 µM (inactive) | > 100 µM (inactive) | > 100 µM (inactive) | > 100 µM (inactive) | > 100 µM (inactive) | > 100 µM (inactive)
4 | CC(O)C1OC(O)C2OC(C)(C)OC12 (stereo unspecified) | > 100 µM (inactive) | > 100 µM (inactive) | > 100 µM (inactive) | > 100 µM (inactive) | > 100 µM (inactive) | > 100 µM (inactive) | > 100 µM (inactive) |  | > 100 µM (inactive) | > 100 µM (inactive) | > 100 µM (inactive) | > 100 µM (inactive) | > 100 µM (inactive) | > 100 µM (inactive) | > 100 µM (inactive) | > 100 µM (inactive) | > 100 µM (inactive) | > 100 µM (inactive) | > 100 µM (inactive) | > 100 µM (inactive)
5 | COC(=O)C12CCC(C(=O)OC)(Cc3c(c4ccccc4n3S(=O)(=O)c3ccccc3)C1)C2=O (stereo unspecified) | > 100 µM (inactive) | > 46 µM (inactive) | > 100 µM (inactive) | > 62.4 µM (inactive) | 1 µM (active) | > 100 µM (inactive) | > 100 µM (inactive) | 1 µM (active) | > 46.3 µM (inactive) | > 59.3 µM (inactive) | 63.8 µM (inactive) | > 100 µM (inactive) | > 61.8 µM (inactive) | > 61 µM (inactive) | > 56.4 µM (inactive) | > 100 µM (inactive) | > 100 µM (inactive) | > 40.5 µM (inactive) |  | > 51.1 µM (inactive)
6 | O=c1c2cc(S(=O)(=O)Nc3c(Cl)cccc3Cl)ccc2ncn1NS(=O)(=O)c1ccc2ccccc2c1 |  | > 62.5 µM (inactive) | 22.3 µM (inactive) | 25.9 µM (inactive) | 17.1 µM (inactive) | 46.6 µM (inactive) | 12.9 µM (inactive) | 19.6 µM (inactive) | 16.4 µM (inactive) | 25.4 µM (inactive) | > 62.5 µM (inactive) | 42.4 µM (inactive) | 7.46 µM (inactive) | > 62.5 µM (inactive) | 32.6 µM (inactive) | 40.9 µM (inactive) | > 62.5 µM (inactive) | 33.2 µM (inactive) | 30.3 µM (inactive) | 23 µM (inactive)
7 | CCCCc1c2c(nc3c1CCC/C3=C\c1ccccc1)C(=O)C(CN(C)C)CC2 (stereo unspecified) | 18.7 µM (inactive) | 19.9 µM (inactive) | 4.32 µM (inactive) |  | 3.17 µM (inactive) | 19.1 µM (inactive) | 18.5 µM (inactive) | 16.6 µM (inactive) | 12.4 µM (inactive) | 16.2 µM (inactive) | 3.37 µM (inactive) | 11.1 µM (inactive) | 19.5 µM (inactive) | 16.2 µM (inactive) | 18.3 µM (inactive) | 2.76 µM (inactive) | 10.4 µM (inactive) | 20.3 µM (inactive) | 2.86 µM (inactive) | 16.7 µM (inactive)
